# Key:
# [1] = target: Macrophage colony-stimulating factor 1 receptor (Homo sapiens, UniProt P07333)
# [2] = Growth inhibition of MCSF expressing mouse M-NSF60 cells
# NSO = experiment: Growth inhibition of MCSF-independent mouse NSO cells
# [3] = Plasma clearance in rat; type: ADME, organism-based
# Rattus norvegicus = experiment: Antiinflammatory activity against carrageenan-induced paw edema in rat assessed as paw size at 40 mg/kg, iv relative to control; conditions: read-out: Inhibition
# [4] = Plasma clearance in rat at 3 mg/kg, iv; type: ADME, organism-based; parameters: dose 3 mg/kg, route intravenous
# Sequence of Macrophage colony-stimulating factor 1 receptor (P07333 whole entry): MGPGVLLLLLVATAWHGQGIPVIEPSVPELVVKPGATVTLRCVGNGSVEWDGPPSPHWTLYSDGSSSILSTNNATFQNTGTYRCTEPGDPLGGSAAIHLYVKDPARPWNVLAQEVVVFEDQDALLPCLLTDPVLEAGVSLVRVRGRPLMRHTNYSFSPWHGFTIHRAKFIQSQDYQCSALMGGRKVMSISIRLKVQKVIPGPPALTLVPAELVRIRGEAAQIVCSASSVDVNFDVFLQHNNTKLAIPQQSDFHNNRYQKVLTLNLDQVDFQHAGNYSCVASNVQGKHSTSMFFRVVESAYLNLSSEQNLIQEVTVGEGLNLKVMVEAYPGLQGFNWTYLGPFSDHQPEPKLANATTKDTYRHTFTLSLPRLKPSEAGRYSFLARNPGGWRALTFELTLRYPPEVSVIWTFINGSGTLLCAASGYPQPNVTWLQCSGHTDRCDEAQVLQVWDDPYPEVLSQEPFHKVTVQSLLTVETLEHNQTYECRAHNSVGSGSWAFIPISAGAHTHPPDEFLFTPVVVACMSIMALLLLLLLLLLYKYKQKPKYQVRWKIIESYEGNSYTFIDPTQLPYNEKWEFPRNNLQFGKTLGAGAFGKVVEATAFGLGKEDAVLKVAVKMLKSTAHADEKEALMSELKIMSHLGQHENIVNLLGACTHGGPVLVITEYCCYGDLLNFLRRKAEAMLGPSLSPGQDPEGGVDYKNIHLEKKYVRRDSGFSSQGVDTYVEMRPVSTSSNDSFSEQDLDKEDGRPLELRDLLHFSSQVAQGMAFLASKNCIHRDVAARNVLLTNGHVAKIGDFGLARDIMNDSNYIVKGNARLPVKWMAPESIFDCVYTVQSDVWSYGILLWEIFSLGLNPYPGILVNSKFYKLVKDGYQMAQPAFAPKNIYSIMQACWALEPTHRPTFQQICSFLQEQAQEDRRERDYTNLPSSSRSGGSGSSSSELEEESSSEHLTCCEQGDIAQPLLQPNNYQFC
SMILES,IC50 [1],IC50 [2],IC50 (NSO),clearance [3],inhibition in vivo at 40 mg/kg (Rattus norvegicus),clearance [4]
COc1ccc(Nc2c(C(N)=O)cnc3cc(-c4ccncc4)ccc23)cc1F,0.04 µM,0.32 µM,32 µM,,,
Cc1cc(Nc2c(C(N)=O)cnc3cc(-c4ccncc4)ccc23)ccc1Cl,0.16 µM,2 µM,32 µM,,,
CN(C)c1ccc(-c2ccc3c(Nc4ccccc4)c(C(N)=O)cnc3c2)cc1,0.04 µM,6.3 µM,32 µM,,,
COc1ccc(Nc2c(C(N)=O)cnc3cc(-c4ccncc4)ccc23)cc1Cl,0.032 µM,0.2 µM,> 50 µM,,,
NC(=O)c1cnc2cc(-c3ccc(C(=O)C4CC4)cc3)ccc2c1Nc1ccccc1,0.1 µM,4 µM,10 µM,,,
NC(=O)c1cnc2cc(-c3ccc(C(=O)C4CCCC4)cc3)ccc2c1Nc1ccccc1,0.032 µM,> 20 µM,> 20 µM,,,
CS(=O)(=O)Cc1cccc(-c2ccc3c(Nc4ccccc4)c(C(N)=O)cnc3c2)c1,0.025 µM,5 µM,> 20 µM,,,
N#Cc1ccc(-c2ccc3c(Nc4ccccc4)c(C(N)=O)cnc3c2)cc1,0.05 µM,4 µM,32 µM,,,
NC(=O)c1cnc2cc(-c3ccncc3)ccc2c1Nc1ccccc1,,0.8 µM,12 µM,39 mL/min/kg,95%,
COc1ccc(Nc2c(C(N)=O)cnc3cc(-c4ccncc4)ccc23)cc1,0.063 µM,0.8 µM,16 µM,,,
N#Cc1cccc(-c2ccc3c(Nc4ccccc4)c(C(N)=O)cnc3c2)c1,0.32 µM,8 µM,10 µM,,,
CSc1ccc(Nc2c(C(N)=O)cnc3cc(-c4ccncc4)ccc23)cc1,0.13 µM,10 µM,> 50 µM,,,
CCOc1ccc(Nc2c(C(N)=O)cnc3cc(-c4ccncc4)ccc23)cc1F,,4 µM,> 16 µM,,,
CC(C)Oc1ccc(Nc2c(C(N)=O)cnc3cc(-c4ccncc4)ccc23)cc1F,,8 µM,13 µM,,,
CN(C)c1ccc(Nc2c(C(N)=O)cnc3cc(-c4ccncc4)ccc23)cc1,0.063 µM,6.3 µM,10 µM,,,
CC(C)Oc1ccc(Nc2c(C(N)=O)cnc3cc(-c4ccncc4)ccc23)cc1,0.63 µM,40 µM,> 50 µM,,,
NC(=O)c1cnc2cc(-c3ccncc3)ccc2c1Nc1cccc2[nH]ncc12,0.16 µM,1.3 µM,> 32 µM,,,
NC(=O)c1cnc2cc(-c3ccccc3)ccc2c1Nc1ccccc1,,10 µM,32 µM,,,
NC(=O)c1cnc2cc(-c3ccncc3)ccc2c1Nc1ccc(F)c(F)c1,0.032 µM,2.5 µM,> 32 µM,,,
Cc1cc(Nc2c(C(N)=O)cnc3cc(-c4ccncc4)ccc23)ccc1F,0.05 µM,1 µM,> 50 µM,,,
CS(=O)(=O)Cc1ccc(-c2ccc3c(Nc4ccccc4)c(C(N)=O)cnc3c2)cc1,0.05 µM,1.6 µM,8 µM,,,
CCS(=O)(=O)c1ccc(-c2ccc3c(Nc4ccccc4)c(C(N)=O)cnc3c2)cc1,0.2 µM,0.8 µM,8 µM,,,
NC(=O)c1cnc2cc(-c3ccc(C(=O)N4CCCCC4)cc3)ccc2c1Nc1ccccc1,0.016 µM,0.4 µM,8 µM,,,
NC(=O)c1cnc2cc(-c3ccc(C(=O)N4CCOCC4)cc3)ccc2c1Nc1ccccc1,0.08 µM,0.2 µM,8 µM,,,

SMILES,IC50 [1],IC50 [2],IC50 (NSO),clearance [3],inhibition in vivo at 40 mg/kg (Rattus norvegicus),clearance [4]
CS(=O)(=O)c1ccc(-c2ccc3c(Nc4ccccc4)c(C(N)=O)cnc3c2)cc1,0.016 µM,0.1 µM,20 µM,,,
Cc1ccc(Nc2c(C(N)=O)cnc3cc(-c4ccc(S(C)(=O)=O)cc4)ccc23)cc1C,0.008 µM,0.1 µM,10 µM,,,51 mL/min/kg
Cc1ccc(Nc2c(C(N)=O)cnc3cc(-c4ccc(S(C)(=O)=O)cc4)ccc23)cc1F,0.063 µM,3.2 µM,> 20 µM,,,
CS(=O)(=O)c1ccc(-c2ccc3c(Nc4ccc(F)cc4)c(C(N)=O)cnc3c2)cc1,0.16 µM,0.4 µM,10 µM,,,4.5 mL/min/kg
COc1ccc(Nc2c(C(N)=O)cnc3cc(-c4ccc(S(C)(=O)=O)cc4)ccc23)cc1F,0.1 µM,1 µM,20 µM,,,
Cc1ccc(-c2ccc3c(Nc4ccccc4)c(C(N)=O)cnc3c2)cc1,,32 µM,25 µM,,,
COc1ccc(-c2ccc3c(Nc4ccccc4)c(C(N)=O)cnc3c2)cc1,0.025 µM,6.3 µM,8 µM,,,
NC(=O)c1cnc2cc(-c3ccc(F)cc3)ccc2c1Nc1ccccc1,0.032 µM,25 µM,25 µM,,,
NC(=O)c1cnc2cc(-c3ccc(S(N)(=O)=O)cc3)ccc2c1Nc1ccccc1,0.08 µM,3.2 µM,13 µM,,,
NC(=O)c1cnc2cc(-c3ccncc3)ccc2c1Nc1ccc(F)cc1,0.1 µM,0.8 µM,> 40 µM,,,
Cc1ccc(Nc2c(C(N)=O)cnc3cc(-c4ccncc4)ccc23)cc1C,0.08 µM,0.1 µM,> 50 µM,,,
Cc1ccc(Nc2c(C(N)=O)cnc3cc(-c4ccncc4)ccc23)cc1F,0.08 µM,5 µM,> 20 µM,,,
NC(=O)c1cnc2cc(-c3ccc(Br)cc3)ccc2c1Nc1ccccc1,0.016 µM,50 µM,50 µM,,,
NC(=O)c1cnc2cc(-c3ccc(N)cc3)ccc2c1Nc1ccccc1,,1.6 µM,10 µM,,,
CS(=O)(=O)c1ccc(-c2ccc3c(Nc4ccc(F)c(F)c4)c(C(N)=O)cnc3c2)cc1,0.2 µM,2 µM,> 20 µM,,,
COc1ccc(Nc2c(C(N)=O)cnc3cc(-c4ccc(S(C)(=O)=O)cc4)ccc23)cc1Cl,,0.1 µM,13 µM,,,
Cc1ccc(Nc2c(C(N)=O)cnc3cc(-c4ccncc4)ccc23)cc1Cl,0.04 µM,0.16 µM,> 32 µM,,,
NC(=O)c1cnc2cc(-c3ccncc3)ccc2c1Nc1ccc(OC(F)(F)F)c(Cl)c1,0.032 µM,> 20 µM,> 32 µM,,,
NC(=O)c1cnc2cc(-c3ccncc3)ccc2c1Nc1ccon1,3.2 µM,> 50 µM,40 µM,,,
NC(=O)c1cnc2cc(-c3ccncc3)ccc2c1Nc1n[nH]c2ccccc12,0.32 µM,0.8 µM,> 50 µM,,,
NC(=O)c1cnc2cc(-c3ccc(C(F)(F)F)cc3)ccc2c1Nc1ccccc1,0.13 µM,16 µM,20 µM,,,
CS(=O)(=O)Nc1ccc(-c2ccc3c(Nc4ccccc4)c(C(N)=O)cnc3c2)cc1,0.063 µM,2 µM,10 µM,,,
CC(=O)Nc1ccc(-c2ccc3c(Nc4ccccc4)c(C(N)=O)cnc3c2)cc1,0.08 µM,1.3 µM,4 µM,,,
